Test results taken from the kinase profiling compilation of Christmann-Franck et al. (2016).
“And” between values parts separate entries of the source, which are not always exact repeats. Equal values may be shown once. Values belong to the molecule of their own block, whether it stands above or below them.

Assays:
Experiment in all cases: radiometric filter-binding kinase assay, Kinase HotSpot
Conditions in all cases: compound 0.5 µM; ATP 10 µM
[1] = molecular target: PHKG1 (human) (UniProt Q16816)
[2] = molecular target: LYN (human) (UniProt P07948)
[3] = molecular target: SRPK2 (human) (UniProt P78362)
[4] = molecular target: MAPK3 (human) (UniProt P27361)
MAPK3 (human), sequence (P27361 whole entry, looked up): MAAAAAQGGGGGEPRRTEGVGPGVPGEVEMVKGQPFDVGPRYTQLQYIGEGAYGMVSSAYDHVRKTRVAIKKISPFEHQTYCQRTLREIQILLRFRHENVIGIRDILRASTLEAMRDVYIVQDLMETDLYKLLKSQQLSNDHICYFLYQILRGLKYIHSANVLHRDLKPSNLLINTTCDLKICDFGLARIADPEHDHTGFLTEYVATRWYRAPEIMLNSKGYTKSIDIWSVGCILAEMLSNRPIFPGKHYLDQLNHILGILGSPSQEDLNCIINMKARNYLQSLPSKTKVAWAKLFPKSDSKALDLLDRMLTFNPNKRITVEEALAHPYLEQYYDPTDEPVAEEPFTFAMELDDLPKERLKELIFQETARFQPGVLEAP

[5] = molecular target: PASK (human) (UniProt Q96RG2)
[6] = molecular target: NEK3 (human) (UniProt P51956)
NEK3 (human), sequence (P51956 whole entry, looked up): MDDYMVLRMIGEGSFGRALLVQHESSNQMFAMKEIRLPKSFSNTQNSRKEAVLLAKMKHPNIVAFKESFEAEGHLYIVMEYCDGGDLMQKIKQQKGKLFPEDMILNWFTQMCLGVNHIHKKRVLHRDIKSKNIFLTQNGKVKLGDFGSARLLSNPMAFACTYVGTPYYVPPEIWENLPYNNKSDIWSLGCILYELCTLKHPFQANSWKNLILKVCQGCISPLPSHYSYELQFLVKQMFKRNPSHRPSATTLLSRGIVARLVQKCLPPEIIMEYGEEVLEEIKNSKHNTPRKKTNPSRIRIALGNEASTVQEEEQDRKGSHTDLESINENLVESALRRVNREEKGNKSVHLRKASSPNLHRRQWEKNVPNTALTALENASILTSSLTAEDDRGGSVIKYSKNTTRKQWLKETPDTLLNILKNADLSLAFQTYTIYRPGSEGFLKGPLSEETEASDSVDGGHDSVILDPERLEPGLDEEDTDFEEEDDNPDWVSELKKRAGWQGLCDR

[7] = molecular target: CAMK1G (human) (UniProt Q96NX5)
[8] = molecular target: DYRK4 (human) (UniProt Q9NR20)
[9] = molecular target: STK10 (human) (UniProt O94804)
[10] = molecular target: PRKD2 (human) (UniProt Q9BZL6)
[11] = molecular target: MAPK12 (human) (UniProt P53778)
[12] = molecular target: VRK1 (human) (UniProt Q99986)
[13] = molecular target: MAP2K1 (human) (UniProt Q02750)
[14] = molecular target: CSNK2A1 (human) (UniProt P68400)
[15] = molecular target: CDK5 CDK5R1 p35 (human) (UniProt Q00535+Q15078)
[16] = molecular target: CDC42BPA (human) (UniProt Q5VT25)
[17] = molecular target: PRKCE (human) (UniProt Q02156)
PRKCE (human), sequence (Q02156 whole entry, looked up): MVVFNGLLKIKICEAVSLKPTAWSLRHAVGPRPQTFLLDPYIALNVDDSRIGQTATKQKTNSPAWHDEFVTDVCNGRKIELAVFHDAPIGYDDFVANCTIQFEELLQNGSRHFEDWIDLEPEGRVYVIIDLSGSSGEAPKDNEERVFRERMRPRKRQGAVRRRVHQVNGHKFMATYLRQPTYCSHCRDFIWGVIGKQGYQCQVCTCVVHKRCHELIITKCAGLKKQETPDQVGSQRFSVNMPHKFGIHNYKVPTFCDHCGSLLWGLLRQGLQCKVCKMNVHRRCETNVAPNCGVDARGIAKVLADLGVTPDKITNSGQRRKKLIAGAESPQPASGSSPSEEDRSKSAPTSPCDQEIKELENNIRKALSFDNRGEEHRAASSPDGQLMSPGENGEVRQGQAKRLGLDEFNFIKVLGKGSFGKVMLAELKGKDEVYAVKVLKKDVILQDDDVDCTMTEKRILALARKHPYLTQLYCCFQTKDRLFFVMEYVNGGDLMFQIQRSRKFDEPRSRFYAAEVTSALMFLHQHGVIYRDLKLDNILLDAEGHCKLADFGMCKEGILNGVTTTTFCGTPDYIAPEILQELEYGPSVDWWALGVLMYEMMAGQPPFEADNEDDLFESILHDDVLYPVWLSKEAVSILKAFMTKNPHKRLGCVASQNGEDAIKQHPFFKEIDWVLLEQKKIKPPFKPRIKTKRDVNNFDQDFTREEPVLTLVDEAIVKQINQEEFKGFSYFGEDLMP

[18] = molecular target: TBK1 (human) (UniProt Q9UHD2)
[19] = molecular target: WEE1 (human) (UniProt P30291)
[20] = molecular target: PTK6 (human) (UniProt Q13882)
PTK6 (human), sequence (Q13882 whole entry, looked up): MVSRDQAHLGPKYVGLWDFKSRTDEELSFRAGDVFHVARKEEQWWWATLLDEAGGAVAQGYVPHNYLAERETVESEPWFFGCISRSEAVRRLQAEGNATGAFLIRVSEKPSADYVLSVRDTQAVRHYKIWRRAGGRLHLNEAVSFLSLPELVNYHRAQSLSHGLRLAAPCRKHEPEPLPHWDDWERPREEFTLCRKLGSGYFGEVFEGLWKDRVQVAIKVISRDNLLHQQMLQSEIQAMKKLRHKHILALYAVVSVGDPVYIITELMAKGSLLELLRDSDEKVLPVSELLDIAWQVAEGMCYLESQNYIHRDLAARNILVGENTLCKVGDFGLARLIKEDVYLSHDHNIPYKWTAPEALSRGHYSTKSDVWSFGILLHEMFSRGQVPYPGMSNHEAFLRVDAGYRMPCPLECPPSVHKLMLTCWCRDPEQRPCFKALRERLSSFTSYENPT

[21] = molecular target: ULK1 (human) (UniProt O75385)
[22] = molecular target: TSSK2 (human) (UniProt Q96PF2)
[23] = molecular target: FGFR4 (human) (UniProt P22455)
[24] = molecular target: GRK7 (human) (UniProt Q8WTQ7)
[25] = molecular target: SRC (human) (UniProt P12931)
[26] = molecular target: CAMK1D (human) (UniProt Q8IU85)
[27] = molecular target: PKN2 (human) (UniProt Q16513)
PKN2 (human), sequence (Q16513 whole entry, looked up): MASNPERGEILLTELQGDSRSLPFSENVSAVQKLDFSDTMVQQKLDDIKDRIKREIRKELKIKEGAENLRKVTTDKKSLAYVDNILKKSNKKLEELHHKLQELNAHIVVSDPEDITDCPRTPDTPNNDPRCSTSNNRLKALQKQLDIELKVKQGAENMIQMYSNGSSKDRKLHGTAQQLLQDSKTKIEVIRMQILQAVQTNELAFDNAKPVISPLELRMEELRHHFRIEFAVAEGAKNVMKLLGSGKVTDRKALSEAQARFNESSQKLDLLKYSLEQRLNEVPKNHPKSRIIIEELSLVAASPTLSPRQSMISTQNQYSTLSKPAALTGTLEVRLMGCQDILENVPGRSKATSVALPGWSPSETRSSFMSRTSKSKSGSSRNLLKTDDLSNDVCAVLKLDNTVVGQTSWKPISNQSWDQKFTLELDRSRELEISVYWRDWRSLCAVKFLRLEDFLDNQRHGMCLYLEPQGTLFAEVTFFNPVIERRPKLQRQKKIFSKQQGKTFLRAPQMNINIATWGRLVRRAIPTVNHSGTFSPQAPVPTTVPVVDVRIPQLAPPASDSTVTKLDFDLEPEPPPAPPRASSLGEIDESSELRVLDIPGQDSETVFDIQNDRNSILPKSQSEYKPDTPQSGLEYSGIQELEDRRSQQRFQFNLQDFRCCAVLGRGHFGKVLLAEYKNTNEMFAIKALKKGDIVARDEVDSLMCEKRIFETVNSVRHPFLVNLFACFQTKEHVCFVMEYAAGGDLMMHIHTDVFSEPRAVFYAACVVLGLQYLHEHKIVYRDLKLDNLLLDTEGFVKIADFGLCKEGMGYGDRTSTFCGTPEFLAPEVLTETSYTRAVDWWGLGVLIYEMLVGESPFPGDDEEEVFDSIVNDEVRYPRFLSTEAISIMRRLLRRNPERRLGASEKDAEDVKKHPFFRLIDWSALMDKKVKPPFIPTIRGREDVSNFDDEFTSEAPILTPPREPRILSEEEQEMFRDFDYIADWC

[28] = molecular target: CAMKK2 (human) (UniProt Q96RR4)
[29] = molecular target: PLK3 (human) (UniProt Q9H4B4)
[30] = molecular target: NEK2 (human) (UniProt P51955)
[31] = molecular target: PAK6 (human) (UniProt Q9NQU5)
PAK6 (human), sequence (Q9NQU5 whole entry, looked up): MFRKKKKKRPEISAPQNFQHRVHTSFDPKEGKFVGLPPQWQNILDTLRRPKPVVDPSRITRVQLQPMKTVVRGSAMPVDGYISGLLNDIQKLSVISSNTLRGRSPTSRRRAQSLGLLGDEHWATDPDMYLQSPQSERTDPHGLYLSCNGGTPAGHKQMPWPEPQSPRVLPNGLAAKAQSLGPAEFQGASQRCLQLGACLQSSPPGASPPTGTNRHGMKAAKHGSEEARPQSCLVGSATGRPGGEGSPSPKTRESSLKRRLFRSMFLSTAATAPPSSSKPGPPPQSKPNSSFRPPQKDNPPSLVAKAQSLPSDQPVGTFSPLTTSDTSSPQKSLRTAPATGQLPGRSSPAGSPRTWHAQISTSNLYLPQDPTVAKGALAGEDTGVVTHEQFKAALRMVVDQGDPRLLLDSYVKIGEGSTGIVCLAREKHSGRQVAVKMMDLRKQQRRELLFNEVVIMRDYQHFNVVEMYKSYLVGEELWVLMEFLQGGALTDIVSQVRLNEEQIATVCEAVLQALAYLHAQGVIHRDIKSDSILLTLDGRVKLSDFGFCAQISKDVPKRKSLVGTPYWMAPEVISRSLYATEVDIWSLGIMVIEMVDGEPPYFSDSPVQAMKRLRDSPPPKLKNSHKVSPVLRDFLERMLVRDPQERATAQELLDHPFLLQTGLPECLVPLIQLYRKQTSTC

[32] = molecular target: MET (human) (UniProt P08581)
[33] = molecular target: SIK2 (human) (UniProt Q9H0K1)
[34] = molecular target: EPHA2 (human) (UniProt P29317)
[35] = molecular target: NTRK1 (human) (UniProt P04629)
[36] = molecular target: TGFBR2 (human) (UniProt P37173)
[37] = molecular target: SGK3 (human) (UniProt Q96BR1)
[38] = molecular target: DAPK1 (human) (UniProt P53355)
[39] = molecular target: RPS6KA3 KD1 KD2 (human) (UniProt P51812)
[40] = molecular target: WNK3 (human) (UniProt Q9BYP7)
[41] = molecular target: MUSK (human) (UniProt O15146)
[42] = molecular target: HIPK2 (human) (UniProt Q9H2X6)
HIPK2 (human), sequence (Q9H2X6 whole entry, looked up): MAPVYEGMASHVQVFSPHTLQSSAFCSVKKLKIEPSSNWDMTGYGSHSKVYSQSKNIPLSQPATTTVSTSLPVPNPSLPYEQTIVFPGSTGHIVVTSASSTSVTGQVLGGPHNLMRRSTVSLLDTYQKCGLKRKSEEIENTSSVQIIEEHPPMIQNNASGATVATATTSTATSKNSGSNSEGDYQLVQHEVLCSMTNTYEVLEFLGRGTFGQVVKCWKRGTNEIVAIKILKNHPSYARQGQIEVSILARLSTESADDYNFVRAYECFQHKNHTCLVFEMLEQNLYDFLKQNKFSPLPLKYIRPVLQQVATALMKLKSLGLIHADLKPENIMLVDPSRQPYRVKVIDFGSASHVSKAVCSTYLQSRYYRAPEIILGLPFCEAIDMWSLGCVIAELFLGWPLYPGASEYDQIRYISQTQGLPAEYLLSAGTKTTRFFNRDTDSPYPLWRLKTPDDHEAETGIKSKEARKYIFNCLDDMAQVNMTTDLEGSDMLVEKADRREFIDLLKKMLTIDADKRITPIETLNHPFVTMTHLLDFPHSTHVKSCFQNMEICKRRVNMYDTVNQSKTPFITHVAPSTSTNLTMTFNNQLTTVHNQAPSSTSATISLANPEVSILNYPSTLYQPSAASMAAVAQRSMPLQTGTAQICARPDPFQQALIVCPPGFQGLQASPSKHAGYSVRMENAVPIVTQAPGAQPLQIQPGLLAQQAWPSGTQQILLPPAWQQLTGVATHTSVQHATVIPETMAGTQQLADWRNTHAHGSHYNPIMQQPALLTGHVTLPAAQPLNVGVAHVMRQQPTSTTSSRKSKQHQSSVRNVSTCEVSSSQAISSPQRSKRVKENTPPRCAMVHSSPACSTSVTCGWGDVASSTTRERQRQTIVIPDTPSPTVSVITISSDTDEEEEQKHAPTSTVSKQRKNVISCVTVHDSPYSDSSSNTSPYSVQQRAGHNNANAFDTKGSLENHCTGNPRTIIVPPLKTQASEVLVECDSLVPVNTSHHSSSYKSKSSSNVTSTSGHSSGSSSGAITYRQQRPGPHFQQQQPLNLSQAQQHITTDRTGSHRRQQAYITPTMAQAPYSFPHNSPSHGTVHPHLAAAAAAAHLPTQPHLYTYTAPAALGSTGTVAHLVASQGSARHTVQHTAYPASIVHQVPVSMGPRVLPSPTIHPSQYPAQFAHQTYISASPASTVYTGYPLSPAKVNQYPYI

SMILES: O=C(O)/C=C/c1cc(Br)c(Br)c(Br)c1Br
residual activity [1]: 87.6% | residual activity [2]: 102% and 99.3% | residual activity [3]: 62% | residual activity [4]: 110% | residual activity [5]: 24.8% | residual activity [6]: 83.5% | residual activity [7]: 94.1% | residual activity [8]: 96.4% | residual activity [9]: 85.8% | residual activity [10]: 71.6% | residual activity [11]: 103% | residual activity [12]: 89.8% | residual activity [13]: 95.8% | residual activity [14]: 13.1% | residual activity [15]: 92.4% | residual activity [16]: 98.5% | residual activity [17]: 88.6% | residual activity [18]: 91.4% | residual activity [19]: 99.1% | residual activity [20]: 95% | residual activity [21]: 108% | residual activity [22]: 98.1% | residual activity [23]: 88.3% | residual activity [24]: 105% | residual activity [25]: 88.8% | residual activity [26]: 98.1% | residual activity [27]: 95.6% | residual activity [28]: 79.6% | residual activity [29]: 73.6% | residual activity [30]: 92% | residual activity [31]: 110% | residual activity [32]: 84.5% | residual activity [33]: 107% | residual activity [34]: 97.9% | residual activity [35]: 91.1% | residual activity [36]: 85.7% | residual activity [37]: 85.7% | residual activity [38]: 73.7% | residual activity [39]: 41.2% | residual activity [40]: 89.8% | residual activity [41]: 53.6% | residual activity [42]: 82.2%

SMILES: CC(C)c1nn(-c2c(Cl)cccc2Cl)c2nc(Cc3ccc(OCCO)cc3)nc(O)c12
residual activity [1]: 87% | residual activity [2]: 102% and 92.7% | residual activity [3]: 89.2% | residual activity [4]: 101% | residual activity [5]: 95.7% | residual activity [6]: 87.3% | residual activity [7]: 100% | residual activity [8]: 96.7% | residual activity [9]: 96.6% | residual activity [10]: 88.4% | residual activity [11]: 103% | residual activity [12]: 103% | residual activity [13]: 99.7% | residual activity [14]: 88.8% | residual activity [15]: 9.64% | residual activity [16]: 89.5% | residual activity [17]: 90.5% | residual activity [18]: 97.7% | residual activity [19]: 109% | residual activity [20]: 87.1% | residual activity [21]: 125% | residual activity [22]: 105% | residual activity [23]: 91.5% | residual activity [24]: 106% | residual activity [25]: 86.7% | residual activity [26]: 102% | residual activity [27]: 97.5% | residual activity [28]: 90.9% | residual activity [29]: 99.1% | residual activity [30]: 97.7% | residual activity [31]: 102% | residual activity [32]: 91% | residual activity [33]: 116% | residual activity [34]: 100% | residual activity [35]: 89% | residual activity [36]: 74.3% | residual activity [37]: 92.6% | residual activity [38]: 99.5% | residual activity [39]: 88.4% | residual activity [40]: 96.7% | residual activity [41]: 96.2% | residual activity [42]: 104%

SMILES: COc1cc2ncnc(N3CCN(C(=O)Nc4ccc(Oc5ccccc5)cc4)CC3)c2cc1OC
residual activity [1]: 89.5% | residual activity [2]: 102% and 97.8% | residual activity [3]: 89.1% | residual activity [4]: 102% | residual activity [5]: 97.7% | residual activity [6]: 100% | residual activity [7]: 100% | residual activity [8]: 79.8% | residual activity [9]: 97.9% | residual activity [10]: 91.9% | residual activity [11]: 94.7% | residual activity [12]: 77.4% | residual activity [13]: 91.2% | residual activity [14]: 96.2% | residual activity [15]: 99.8% | residual activity [16]: 95.4% | residual activity [17]: 106% | residual activity [18]: 96.3% | residual activity [19]: 97.5% | residual activity [20]: 95.2% | residual activity [21]: 110% | residual activity [22]: 79.1% | residual activity [23]: 99.7% | residual activity [24]: 95.7% | residual activity [25]: 102% | residual activity [26]: 104% | residual activity [27]: 99.1% | residual activity [28]: 81.6% | residual activity [29]: 91.8% | residual activity [30]: 81.3% | residual activity [31]: 95.2% | residual activity [32]: 107% | residual activity [33]: 96% | residual activity [34]: 95.7% | residual activity [35]: 90.6% | residual activity [36]: 102% | residual activity [37]: 97.6% | residual activity [38]: 97.5% | residual activity [39]: 115% | residual activity [40]: 101% | residual activity [41]: 87.4% | residual activity [42]: 82.8%

residual activity [1]: 8.06% | residual activity [2]: 25.4% and 45.5% | residual activity [3]: 86.5% | residual activity [4]: 98.7% | residual activity [5]: 89.8% | residual activity [6]: 102% | residual activity [7]: 102% | residual activity [8]: 100% | residual activity [9]: 52.1% | residual activity [10]: 74.3% | residual activity [11]: 89.9% | residual activity [12]: 88.3% | residual activity [13]: 99.7% | residual activity [14]: 57.6% | residual activity [15]: 14.3% | residual activity [16]: 88.6% | residual activity [17]: 92.2% | residual activity [18]: 29.9% | residual activity [19]: 82% | residual activity [20]: 73.3% | residual activity [21]: 98.3% | residual activity [22]: 96.2% | residual activity [23]: 65.7% | residual activity [24]: 70.3% | residual activity [25]: 22.6% | residual activity [26]: 80.3% | residual activity [27]: 90.1% | residual activity [28]: 26% | residual activity [29]: 102% | residual activity [30]: 114% | residual activity [31]: 93.5% | residual activity [32]: 123% | residual activity [33]: 75.1% | residual activity [34]: 65.3% | residual activity [35]: 3.84% | residual activity [36]: 119% | residual activity [37]: 100% | residual activity [38]: 80.9% | residual activity [39]: 18.3% | residual activity [40]: 79.7% | residual activity [41]: 58% | residual activity [42]: 97.6%
SMILES: O=C1Nc2ccccc2/C1=C1/Nc2ccccc2/C1=N\OCCC(O)CO (stereo not drawn)
